The molecules below were run against T1, LPA2 receptor (LPA2R) (Homo sapiens, UniProt Q9HBW0) (assay: LPA2R-Calciumflux assay (intracellular calcium mobilisation, FLIPR)). Conditions: U2OS cells recombinant expressing LPA2R; inhibition of LPA-induced Ca-flux; 10 concentrations 30 uM to 1 nM, 1% DMSO.
T1 construct: expressed in transfected cells; host or cells: U2OS
Type: cell-based
Excerpt: The assay detects intra cellular calcium which is generated by cells upon activation of the LPA2 receptor by its ligand LPA. This transient calcium mobilization can be monitored using a commercial calcium detection kit (e.g. from Molecular Devices). The main component of such a kit is a dye, which becomes fluorescent when calcium is present—a transient fluorescence signal after laddition of a ligand to a test well are the result. Readers like the FLIPR (Molecular Devices) can be used to monitor such transient “Ca-flux” signals.
The signals are calculated according to peak maximum minus base line.
The assay is performed in microplates (384 wells per plate).
LPA2R-Calciumflux Assay Protocol
The assay is run according to the following procedure: • 50 uL seed cells (10000 cells/well in DMEM buffer) • Incubate 24 h at 37° C., 10% CO2 • aspirate medium • 50 uL add calcium dye 1×HBSS/HEPES buffer • incubate 1 h at 37° C. (“loading”) • equilibrate 10 min at RT • 5 uL add compounds in HEPES buffer • shake 10 sec. at 1000 rpm • incubate 15 min at RT • 20 uL add LPA (in the FLIPR Tetra) in Krebs-buffer/BSA & measurement
The cells are seeded in DMEM buffer (DMEM, 10% FCS, 10 mM HEPES, 1% Pen/Strep).
Dye loading is done in HBSS/HEPES buffer (100 mL 10×HBSS+20 mL 1M HEPES+880 mL water, pH 7.4)
The LPA is added in Krebs/BSA buffer (120 mM NaCl, 5 mM KCl, 0.62 mM MgSO4, 1.8 mM CaCl2, 10 mM HEPES, 6 mM D(+)-Glucose, 0.2% BSA, pH 7.4).
The compounds are pre-diluted in HEPES buffer (20 mM, pH 7.4), whereby the final DMSO content in the assay is kept at 1%. The compounds are pre-diluted in order to generate dose response series on the microplates. The dose response series consist of 10 concentrations for each compound from 30 uM final to 1 nM final. From all compound wells the resulting signals are referred to control wells (located on each plate besides the compound wells) in terms of % activity.
From these % activity values—along with the corresponding compound concentrations—IC50 values are fitted for each compound using standard fitting programs such as Graphpad Prism. Here the method “log(inhibitor) vs. response—Variable slope” is used.

T1 sequence (Q9HBW0 whole entry): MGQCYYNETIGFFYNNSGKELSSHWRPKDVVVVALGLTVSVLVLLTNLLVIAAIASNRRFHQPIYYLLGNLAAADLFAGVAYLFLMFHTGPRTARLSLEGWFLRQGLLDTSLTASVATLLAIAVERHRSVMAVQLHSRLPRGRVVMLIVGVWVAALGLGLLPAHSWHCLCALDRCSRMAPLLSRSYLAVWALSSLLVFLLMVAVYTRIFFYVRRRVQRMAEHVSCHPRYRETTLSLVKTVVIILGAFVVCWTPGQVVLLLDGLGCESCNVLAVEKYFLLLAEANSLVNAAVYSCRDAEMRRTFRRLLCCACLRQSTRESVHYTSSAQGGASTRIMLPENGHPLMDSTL

With Cc1ccc(CN2CCCC[C@H]2c2cc3ccccc3[nH]2)cc1 [Example Compound 143, 2-[(S)-1-(4-Methyl-benzyl)-piperidin-2-yl]-1H-indole] as the molecule, how does the IC50 read?
Its IC50 is greater than 15 µM.

With COc1ccc(CN2CCCCC2c2cc3ccccc3[nH]2)cc1 (stereo not drawn) [compound 1, 2-[1-(4-Methoxy-benzyl)-piperidin-2-yl]-1H-indole] as the molecule, how does the IC50 read?
Its IC50 is 0.5 to 5 µM.

Which IC50 does the source give for Cc1cccc(CN2CCCCC2c2cc3ccccc3[nH]2)c1 (stereo not drawn) [compound 2, 2-[1-(3-Methyl-benzyl)-piperidin-2-yl]-1H-indole] here?
Its IC50 is less than 0.5 µM.

For Fc1ccc(CN2CCCCC2c2cc3ccccc3[nH]2)cc1 (stereo not drawn) [compound 3, 2-[1-(4-Fluoro-benzyl)-piperidin-2-yl]-1H-indole], which IC50 is on record?
The IC50 was less than 0.5 µM.

Which IC50 does the source give for COc1cccc(CN2CCCCC2c2cc3ccccc3[nH]2)c1 (stereo not drawn) [compound 4, 2-[1-(3-Methoxy-benzyl)-piperidin-2-yl]-1H-indole] here?
The IC50 was less than 0.5 µM.

Which IC50 does the source give for Cc1ccc(CN2CCCCC2c2cc3ccccc3[nH]2)cc1C (stereo not drawn) [compound 5, 2-[1-(3,4-Dimethyl-benzyl)-piperidin-2-yl]-1H-indole] here?
The IC50 was less than 0.5 µM.

How did the IC50 turn out when c1ccc(CN2CCCCC2c2cc3ccccc3[nH]2)cc1 (stereo not drawn) [compound 6, 2-(1-Benzyl-piperidin-2-yl)-1H-indole] was run?
Its IC50 is 0.5 to 5 µM.

How did the IC50 turn out when Cn1cc(CN2CCCCC2c2cc3ccccc3[nH]2)c2ccccc21 (stereo not drawn) [compound 8, 3-[2-(1H-Indol-2-yl)-piperidin-1-ylmethyl]-1-methyl-1H-indole] was run?
Its IC50 is 0.5 to 5 µM.

Which IC50 does the source give for CC(C)n1cc(CN2CCCCC2c2cc3ccccc3[nH]2)c2ccccc21 (stereo not drawn) [compound 9, 3-[2-(1H-Indol-2-yl)-piperidin-1-ylmethyl]-1-isopropyl-1H-indole] here?
The IC50 was 0.5 to 5 µM.

With Cn1cccc1CN1CCCCC1c1cc2ccccc2[nH]1 (stereo not drawn) [compound 10] as the molecule, how does the IC50 read?
The IC50 was 5 to 15 µM.

Cc1ccc(CN2CCCCC2c2cc3ccccc3[nH]2)cc1 (stereo not drawn) [compound 13, 2-[1-(4-Methyl-benzyl)-piperidin-2-yl]-1H-indole] was tested. Which IC50 did it give?
The IC50 was less than 0.5 µM.

With Cc1cccc(CN2CCCCC2c2cc3cc(F)ccc3[nH]2)c1 (stereo not drawn) [compound 14, 5-Fluoro-2-[1-(3-methyl-benzyl)-piperidin 2-yl]-1H-indole] as the molecule, how does the IC50 read?
Its IC50 is 0.5 to 5 µM.

With Cc1ccc(CN2CCCCC2c2cc3cc(F)ccc3[nH]2)cc1C (stereo not drawn) [compound 15, 2-[1-(3,4-Dimethyl-benzyl)-piperidin-2-yl]-5-fluoro-1H-indole] as the molecule, how does the IC50 read?
The IC50 was 0.5 to 5 µM.

FC(F)(F)c1ccccc1CN1CCCCC1c1cc2ccccc2[nH]1 (stereo not drawn) [compound 16] was tested. Which IC50 did it give?
Its IC50 is 5 to 15 µM.

With FC(F)(F)c1cccc(CN2CCCCC2c2cc3ccccc3[nH]2)c1 (stereo not drawn) [compound 17] as the molecule, how does the IC50 read?
Its IC50 is 5 to 15 µM.

Which IC50 does the source give for FC(F)(F)c1ccc(CN2CCCCC2c2cc3ccccc3[nH]2)cc1 (stereo not drawn) [compound 18] here?
The IC50 was 0.5 to 5 µM.

N#Cc1ccc(CN2CCCCC2c2cc3ccccc3[nH]2)cc1 (stereo not drawn) [compound 19, 4-[2-(1H-Indol-2-yl)-piperidin-1-ylmethyl]-benzonitrile] was tested. Which IC50 did it give?
Its IC50 is 5 to 15 µM.

How did the IC50 turn out when Cc1cccc(CN2CCCCC2c2cc3cccc(C)c3[nH]2)c1 (stereo not drawn) [compound 20, 7-Methyl-2-[1-(3-methyl-benzyl)-piperidin-2-yl]-1H-indole] was run?
Its IC50 is 0.5 to 5 µM.

Which IC50 does the source give for Cc1cccc(CN2CCCCC2c2cc3cc(F)cc(F)c3[nH]2)c1 (stereo not drawn) [compound 21, 5,7-Difluoro-2-[1-(3-methyl-benzyl)-piperidin-2-yl]-1H-indole] here?
The IC50 was 5 to 15 µM.

For Cc1ccc(CN2CCCCC2c2cc3cc(F)cc(F)c3[nH]2)cc1 (stereo not drawn) [compound 22, 5,7-Difluoro-2-[1-(4-methyl-benzyl)-piperidin-2-yl]-1H-indole], which IC50 is on record?
The IC50 was 5 to 15 µM.

Which IC50 does the source give for Cc1ccc(CN2CCCCC2c2cc3cc(F)cc(F)c3[nH]2)cc1C (stereo not drawn) [compound 23, 2-[1-(3,4-Dimethyl-benzyl)-piperidin-2-yl]-5,7-difluoro-1H-indole] here?
The IC50 was 0.5 to 5 µM.

With Cc1ccc(CN2CCCCC2c2cc3c(F)ccc(F)c3[nH]2)cc1C (stereo not drawn) [compound 24, 2-[1-(3,4-Dimethyl-benzyl)-piperidin-2-yl]-4,7-difluoro-1H-indole] as the molecule, how does the IC50 read?
Its IC50 is 0.5 to 5 µM.

With CCOC(=O)c1ccc(CN2CCCCC2c2cc3ccccc3[nH]2)cc1 (stereo not drawn) [compound 25, 4-[2-(1H-Indol-2-yl)-piperidin-1-ylmethyl]-benzoic acid ethyl ester] as the molecule, how does the IC50 read?
Its IC50 is 0.5 to 5 µM.

With CC1CCCC(c2cc3ccccc3[nH]2)N1Cc1ccccc1O (stereo not drawn) [compound 26, 2-[2-(1H-Indol-2-yl)-6-methyl-piperidin-1-ylmethyl]-phenol] as the molecule, how does the IC50 read?
Its IC50 is 0.5 to 5 µM.

How did the IC50 turn out when Cc1ccc(CN2C(C)CCCC2c2cc3ccccc3[nH]2)cc1C (stereo not drawn) [compound 27, 2-[1-(3,4-Dimethyl-benzyl)-6-methyl-piperidin-2-yl]-1H-indole] was run?
The IC50 was less than 0.5 µM.

Which IC50 does the source give for COc1ccccc1CN1C(C)CCCC1c1cc2cc(F)ccc2[nH]1 (stereo not drawn) [compound 28, 5-Fluoro-2-[1-(2-methoxy-benzyl)-6-methyl-piperidin-2-yl]-1H-indole] here?
Its IC50 is 0.5 to 5 µM.

How did the IC50 turn out when CC1CCCC(c2cc3cc(F)ccc3[nH]2)N1Cc1ccccc1O (stereo not drawn) [compound 29, 2-[2-(5-Fluoro-1H-indol-2-yl)-6-methyl-piperidin-1-ylmethyl]-phenol] was run?
Its IC50 is 0.5 to 5 µM.

Cc1cccc(CN2C(C)CCCC2c2cc3cc(F)ccc3[nH]2)c1 (stereo not drawn) [compound 30, 5-Fluoro-2-[6-methyl-1-(3-methyl-benzyl)-piperidin-2-yl]-1H-indole] was tested. Which IC50 did it give?
The IC50 was less than 0.5 µM.

Which IC50 does the source give for CC1CCCC(c2cc3cc(F)ccc3[nH]2)N1Cc1cccc([N+](=O)[O-])c1 (stereo not drawn) [compound 31, 5-Fluoro-2-[6-methyl-1-(3-nitro-benzyl)-piperidin-2-yl]-1H-indole] here?
The IC50 was 0.5 to 5 µM.

CC1CCCC(c2cc3cc(F)ccc3[nH]2)N1Cc1ccc(C#N)cc1 (stereo not drawn) [compound 32, 4-[2-(5-Fluoro-1H-indol-2-yl)-6-methyl-piperidin-1-ylmethyl]-benzonitrile] was tested. Which IC50 did it give?
The IC50 was 0.5 to 5 µM.

With CC1CCCC(c2cc3cc(F)ccc3[nH]2)N1Cc1ccc(S(C)(=O)=O)cc1 (stereo not drawn) [compound 33] as the molecule, how does the IC50 read?
The IC50 was 0.5 to 5 µM.

CCOc1ccc(CN2C(C)CCCC2c2cc3cc(F)ccc3[nH]2)cc1 (stereo not drawn) [compound 34, 2-[1-(4-Ethoxy-benzyl)-6-methyl-piperidin-2-yl]-5-fluoro-1H-indole] was tested. Which IC50 did it give?
Its IC50 is 0.5 to 5 µM.

How did the IC50 turn out when CCOC(=O)c1ccc(CN2C(C)CCCC2c2cc3cc(F)ccc3[nH]2)cc1 (stereo not drawn) [compound 35, 4-[2-(5-Fluoro-1H-indol-2-yl)-6-methyl-piperidin-1-ylmethyl]-benzoic acid ethyl ester] was run?
Its IC50 is 0.5 to 5 µM.

Which IC50 does the source give for CC1CCCC(c2cc3cc(F)ccc3[nH]2)N1Cc1ccc(F)cc1 (stereo not drawn) [compound 36, 5-Fluoro-2-[1-(4-fluoro-benzyl)-6-methyl-piperidin-2-yl]-1H-indole] here?
The IC50 was less than 0.5 µM.

How did the IC50 turn out when CC1CCCC(c2cc3cc(F)ccc3[nH]2)N1Cc1ccc(F)cc1F (stereo not drawn) [compound 37, 2-[1-(2,4-Difluoro-benzyl)-6-methyl-piperidin-2-yl]-5-fluoro-1H-indole] was run?
The IC50 was 0.5 to 5 µM.

Which IC50 does the source give for Cc1ccc(CN2C(C)CCCC2c2cc3cc(F)ccc3[nH]2)o1 (stereo not drawn) [compound 38, 5-Fluoro-2-[6-methyl-1-(5-methyl-furan-2-ylmethyl)-piperidin-2-yl]-1H-indole] here?
The IC50 was less than 0.5 µM.

CC1CCCC(c2cc3cc(F)ccc3[nH]2)N1Cc1ccc(Cl)cc1 (stereo not drawn) [compound 39, 2-[1-(4-Chloro-benzyl)-6-methyl-piperidin-2-yl]-5-fluoro-1H-indole] was tested. Which IC50 did it give?
Its IC50 is 0.5 to 5 µM.

Which IC50 does the source give for COc1cccc(CN2C(C)CCCC2c2cc3cc(F)ccc3[nH]2)c1 (stereo not drawn) [compound 40, 5-Fluoro-2-[1-(3-methoxy-benzyl)-6-methyl-piperidin-2-yl]-1H-indole] here?
The IC50 was less than 0.5 µM.

With CC1CCCC(c2cc3cc(F)ccc3[nH]2)N1Cc1cccnc1 (stereo not drawn) [compound 41, 5-Fluoro-2-(6-methyl-1-pyridin-3-ylmethyl-piperidin-2-yl)-1H-indole] as the molecule, how does the IC50 read?
The IC50 was 0.5 to 5 µM.

N#Cc1ccc(CN2CCCCC2c2cc3c(F)ccc(F)c3[nH]2)cc1 (stereo not drawn) [compound 42, 4-[2-(4,7-Difluoro-1H-indol-2-yl)-piperidin-1-ylmethyl]-benzonitrile] was tested. Which IC50 did it give?
Its IC50 is 5 to 15 µM.

How did the IC50 turn out when Fc1ccc(F)c2[nH]c(C3CCCCN3)cc12 (stereo not drawn) [compound 44, 4,7-Difluoro-2-piperidin-2-yl-1H-indole] was run?
Its IC50 is 0.5 to 5 µM.

For CC1CCCC(c2cc3cc(F)ccc3[nH]2)N1 (stereo not drawn) [compound 45, 5-Fluoro-2-(6-methyl-piperidin-2-yl)-1H-indole], which IC50 is on record?
The IC50 was 0.5 to 5 µM.

How did the IC50 turn out when Cc1ccc(CN2C(C)CCCC2c2cc3cc(F)ccc3[nH]2)cc1 (stereo not drawn) [compound 46, 5-Fluoro-2-[6-methyl-1-(4-methyl-benzyl)-piperidin-2-yl]-1H-indole] was run?
Its IC50 is 0.5 to 5 µM.

Which IC50 does the source give for COc1ccc(CN2CCCCC2c2nc3cc(F)ccc3[nH]2)cc1 (stereo not drawn) [compound 47] here?
The IC50 was 0.5 to 5 µM.

With COc1ccc(CN2CCCCC2c2cc3ccccc3o2)cc1 (stereo not drawn) [compound 48, 2-Benzofuran-2-yl-1-(4-methoxy-benzyl)-piperidine] as the molecule, how does the IC50 read?
The IC50 was 0.5 to 5 µM.

From patent publication US9527850B2, “Benzyl piperidine compounds as lysophosphatidic acid (LPA) receptor antagonist” (Merck Patent GmbH, priority 2011, dated 2016)
